Assay results taken from ChEMBL document CHEMBL1201862, “PubChem BioAssay data set” (2004).
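In this assay, cells in 96-well plates receive the compound at five concentrations for 48 hours. Endpoints are linearly interpolated between the surrounding concentrations. Here, GI50 denotes the concentration required for 50% inhibition of growth.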 Activity calls are given as the source filed them. Cut-off read from the data, not from the text of the source: active = GI50 up to about 1.1 µM and inactive = higher. Numbered stars: 1 amine (or outer) side, 2 acyl side, 3 side chain; on linkers, the order of the positions; unused ones are H or OH. Bridge positions count the residues as written; N and C are the ends. Square brackets hold non-standard residues; d marks the D form. Peptide text beside a SMILES is read from it. I, II: the chains in the order shown. Actinocin(9to1) = Cc1c2oc3c(C)ccc(C(=O)[*:1])c3nc-2c(C(=O)[*:2])c(N)c1=O; X48 = O=C1CC(C(=O)[*:2])N([*:1])C1; NMeV = CN[CH](C(=O)O)C(C)C; Sar = CNCC(=O)O

Legend:
Experiment in all cases: NCI anticancer screen, dose series, 48 h
SNB-19 = system: SNB-19
786-0 = system: 786-0
SR = system: SR
MOLT-4 = system: MOLT-4
HCC 2998 = system: HCC 2998
DU-145 = system: DU-145
UACC-62 = system: UACC-62
SK-MEL-28 = system: SK-MEL-28
OVCAR-8 = system: OVCAR-8
COLO 205 = system: COLO 205
KM12 = system: KM12
PC-3 = system: PC-3
RXF 393 = system: RXF 393
HCT-116 = system: HCT-116
OVCAR-3 = system: OVCAR-3
SK-MEL-2 = system: SK-MEL-2
HT-29 = system: HT-29
IGROV-1 = system: IGROV-1
A498 = system: A498
MDA-N = system: MDA-N
M14 = system: M14
LOX IMVI = system: LOX IMVI
Malme-3M = system: Malme-3M
CAKI-1 = system: CAKI-1
MDA-MB-231 = system: MDA-MB-231
SN12C = system: SN12C
OVCAR-5 = system: OVCAR-5
Hs-578T = system: Hs-578T
ACHN = system: ACHN
OVCAR-4 = system: OVCAR-4
A549 = system: A549
RPMI-8226 = system: RPMI-8226
CCRF-CEM = system: CCRF-CEM
SF-539 = system: SF-539
NCI-H522 = system: NCI-H522
HL-60 = system: HL-60
NCI-H460 = system: NCI-H460
SF-295 = system: SF-295
SNB-75 = system: SNB-75
UO-31 = system: UO-31
SK-MEL-5 = system: SK-MEL-5
EKVX = system: EKVX
NCI-H23 = system: NCI-H23
U-251 = system: U-251
HCT-15 = system: HCT-15
NCI/ADR-RES = system: NCI/ADR-RES
K562 = system: K562
NCI-H226 = system: NCI-H226
HOP-92 = system: HOP-92
MDA-MB-435 = system: MDA-MB-435
SF-268 = system: SF-268
SW-620 = system: SW-620
SK-OV-3 = system: SK-OV-3
T47D = system: T47D
UACC-257 = system: UACC-257
HOP-62 = system: HOP-62
TK-10 = system: TK-10
MCF7 = system: MCF7

Measured: GI50

CN(C)/N=C(/CC(O)(C(F)(F)F)C(F)(F)F)c1ccc([N+](=O)[O-])cc1
> 100 µM: HCT-15
inactive: SNB-19 > 100 µM | 786-0 > 100 µM | SR > 100 µM | MOLT-4 > 100 µM | HCC 2998 > 100 µM | DU-145 > 100 µM | UACC-62 > 100 µM | SK-MEL-28 > 100 µM | OVCAR-8 > 100 µM | COLO 205 > 100 µM | KM12 > 100 µM | PC-3 > 100 µM | RXF 393 > 100 µM | HCT-116 > 100 µM | OVCAR-3 > 100 µM | SK-MEL-2 > 100 µM | HT-29 > 100 µM | IGROV-1 80.5 µM | A498 > 100 µM | MDA-N > 100 µM | M14 > 100 µM | LOX IMVI > 100 µM | Malme-3M > 100 µM | CAKI-1 > 100 µM | MDA-MB-231 > 100 µM | SN12C > 100 µM | OVCAR-5 > 100 µM | Hs-578T > 100 µM | ACHN > 100 µM | OVCAR-4 > 100 µM | A549 > 100 µM | RPMI-8226 > 100 µM | CCRF-CEM > 100 µM | SF-539 > 100 µM | NCI-H522 > 100 µM | HL-60 > 100 µM | NCI-H460 > 100 µM | SF-295 > 100 µM | SNB-75 > 100 µM | UO-31 98.6 µM | SK-MEL-5 > 100 µM | EKVX > 100 µM | NCI-H23 > 100 µM | U-251 > 100 µM | NCI/ADR-RES > 100 µM | K562 > 100 µM | NCI-H226 > 100 µM | HOP-92 > 100 µM | MDA-MB-435 > 100 µM | SF-268 > 100 µM | SW-620 > 100 µM | SK-OV-3 > 100 µM | T47D > 100 µM | UACC-257 > 100 µM | HOP-62 > 100 µM

C=CC1CN2CCC1CC2C(O)c1ccnc2ccc(OC)cc12 (centres undefined)
inactive: NCI-H23 89.1 µM

Cc1c2oc3c(C)ccc(C(=O)NC4C(=O)NC(C(C)C)C(=O)N5CC(=O)CC5C(=O)N(C)CC(=O)N(C)C(C(C)C)C(=O)OC4C)c3nc-2c(C(=O)NC2C(=O)NC(C(C)C)C(=O)N3CC(=O)CC3C(=O)N(C)CC(=O)N(C)C(C(C)C)C(=O)OC2C)c(N)c1=O (centres undefined) (I: TV[X48][Sar][NMeV] / II: TV[X48][Sar][NMeV]; ester I:1-I:C, II:1-II:C; linker I:N-II:N via Actinocin(9to1); configuration not given here)
> 1 µM: HCT-15
active: SNB-19 > 1 µM | 786-0 > 1 µM | SR 0.948 µM | MOLT-4 > 1 µM | HCC 2998 > 1 µM | DU-145 > 1 µM | SK-MEL-28 > 1 µM | OVCAR-8 > 1 µM | COLO 205 > 1 µM | PC-3 > 1 µM | RXF 393 0.476 µM | HCT-116 > 1 µM | OVCAR-3 > 1 µM | SK-MEL-2 > 1 µM | HT-29 > 1 µM | IGROV-1 > 1 µM | A498 > 1 µM | MDA-N > 1 µM | M14 > 1 µM | LOX IMVI > 1 µM | Malme-3M > 1 µM | TK-10 > 1 µM | CAKI-1 > 1 µM | MDA-MB-231 > 1 µM | SN12C > 1 µM | OVCAR-5 > 1 µM | ACHN > 1 µM | OVCAR-4 > 1 µM | A549 0.253 µM | RPMI-8226 > 1 µM | CCRF-CEM > 1 µM | SF-539 > 1 µM | HL-60 > 1 µM | NCI-H460 > 1 µM | SF-295 > 1 µM | UO-31 > 1 µM | SK-MEL-5 > 1 µM | EKVX > 1 µM | NCI-H23 > 1 µM | U-251 > 1 µM | NCI/ADR-RES > 1 µM | K562 > 1 µM | NCI-H226 > 1 µM | HOP-92 > 1 µM | MDA-MB-435 > 1 µM | SW-620 > 1 µM | SK-OV-3 > 1 µM | T47D > 1 µM | UACC-257 > 1 µM | MCF7 0.0277 µM | HOP-62 > 1 µM

CC(=O)Nc1ccc(-c2nc3ccccc3s2)cc1O
41.2 µM: HCT-15
inactive: SNB-19 > 100 µM | 786-0 41.1 µM | SR 61.9 µM | MOLT-4 14.6 µM | HCC 2998 30.6 µM | DU-145 34.8 µM | UACC-62 18.1 µM | SK-MEL-28 80.5 µM | OVCAR-8 19.8 µM | COLO 205 33.8 µM | KM12 17.2 µM | PC-3 51.2 µM | RXF 393 > 100 µM | HCT-116 56.1 µM | OVCAR-3 94.8 µM | SK-MEL-2 49.1 µM | HT-29 34.7 µM | IGROV-1 20.9 µM | A498 69.7 µM | MDA-N 29.6 µM | M14 59.2 µM | LOX IMVI 41.3 µM | TK-10 32.4 µM | CAKI-1 27 µM | MDA-MB-231 78.2 µM | SN12C 30.4 µM | OVCAR-5 23 µM | Hs-578T 50.1 µM | ACHN 27.3 µM | OVCAR-4 92.3 µM | A549 40.1 µM | RPMI-8226 21 µM | CCRF-CEM 22.2 µM | NCI-H522 2.22 µM | NCI-H460 28.6 µM | SF-295 52.6 µM | SNB-75 24.8 µM | UO-31 19.6 µM | SK-MEL-5 20.4 µM | NCI-H23 24.5 µM | U-251 37.4 µM | NCI/ADR-RES 17.1 µM | K562 76.2 µM | NCI-H226 16.9 µM | HOP-92 65.9 µM | MDA-MB-435 37.8 µM | SF-268 27.8 µM | SW-620 84.5 µM | T47D 36.1 µM | UACC-257 31.6 µM | HOP-62 32.3 µM

COc1ccc(S(=O)(=O)O)cc1-n1nc(C(=O)Nc2ccccc2)n[n+]1-c1cc(S(=O)(=O)[O-])ccc1OC
inactive: SNB-19 > 100 µM | 786-0 > 100 µM | SR > 100 µM | MOLT-4 > 100 µM | HCC 2998 > 100 µM | DU-145 > 100 µM | UACC-62 > 100 µM | SK-MEL-28 > 100 µM | COLO 205 > 100 µM | KM12 > 100 µM | PC-3 > 100 µM | RXF 393 > 100 µM | HCT-116 > 100 µM | OVCAR-3 > 100 µM | HT-29 > 100 µM | IGROV-1 > 100 µM | A498 > 100 µM | MDA-N > 100 µM | M14 > 100 µM | Malme-3M > 100 µM | TK-10 > 100 µM | CAKI-1 > 100 µM | MDA-MB-231 > 100 µM | SN12C > 100 µM | OVCAR-5 > 100 µM | Hs-578T > 100 µM | ACHN > 100 µM | OVCAR-4 > 100 µM | A549 > 100 µM | RPMI-8226 > 100 µM | CCRF-CEM > 100 µM | SF-539 > 100 µM | NCI-H522 > 100 µM | HL-60 > 100 µM | NCI-H460 > 100 µM | SF-295 > 100 µM | SNB-75 > 100 µM | UO-31 > 100 µM | SK-MEL-5 > 100 µM | EKVX > 100 µM | NCI-H23 > 100 µM | U-251 > 100 µM | NCI/ADR-RES > 100 µM | K562 > 100 µM | NCI-H226 > 100 µM | MDA-MB-435 > 100 µM | SF-268 > 100 µM | SW-620 > 100 µM | SK-OV-3 > 100 µM | T47D > 100 µM | MCF7 > 100 µM | HOP-62 > 100 µM
> 100 µM: HCT-15

CC(=O)OCc1cccc(O)c1C(=O)CCC=C(C)C
> 100 µM: HCT-15
inactive: SNB-19 > 100 µM | 786-0 > 100 µM | SR > 100 µM | MOLT-4 > 100 µM | HCC 2998 > 100 µM | DU-145 > 100 µM | UACC-62 > 100 µM | SK-MEL-28 > 100 µM | COLO 205 > 100 µM | KM12 > 100 µM | PC-3 > 100 µM | RXF 393 > 100 µM | HCT-116 > 100 µM | OVCAR-3 > 100 µM | SK-MEL-2 > 100 µM | HT-29 > 100 µM | IGROV-1 > 100 µM | A498 > 100 µM | MDA-N > 100 µM | M14 > 100 µM | LOX IMVI 46.9 µM | Malme-3M > 100 µM | TK-10 > 100 µM | CAKI-1 > 100 µM | SN12C > 100 µM | OVCAR-5 29.3 µM | Hs-578T > 100 µM | ACHN > 100 µM | OVCAR-4 > 100 µM | A549 > 100 µM | RPMI-8226 > 100 µM | CCRF-CEM 74.6 µM | SF-539 > 100 µM | NCI-H522 27.1 µM | HL-60 34.7 µM | NCI-H460 > 100 µM | SF-295 32.7 µM | UO-31 > 100 µM | SK-MEL-5 > 100 µM | EKVX > 100 µM | NCI-H23 > 100 µM | U-251 > 100 µM | NCI/ADR-RES > 100 µM | K562 > 100 µM | NCI-H226 > 100 µM | HOP-92 > 100 µM | MDA-MB-435 > 100 µM | SF-268 > 100 µM | SW-620 > 100 µM | SK-OV-3 > 100 µM | T47D > 100 µM | UACC-257 > 100 µM | MCF7 > 100 µM | HOP-62 > 100 µM
